Assay results taken from ChEMBL document CHEMBL1201862, “PubChem BioAssay data set” (2004).
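Cultured in 96-well plates, cells were exposed to test compound for 48 hours across five concentrations. GI50: concentration for 50% inhibition of growth.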 Active and inactive are the calls of the source. Cut-off read from the data, not from the text of the source: active = GI50 up to about 1.1 µM and inactive = higher.

What was measured:
Experiment in all cases: inhibition of tumour cell growth, NCI panel, 48 h
786-0 = system: 786-0
A498 = system: A498
A549 = system: A549
ACHN = system: ACHN
BT-549 = system: BT-549
CAKI-1 = system: CAKI-1
CCRF-CEM = system: CCRF-CEM
COLO 205 = system: COLO 205
DU-145 = system: DU-145
EKVX = system: EKVX
HCC 2998 = system: HCC 2998
HCT-116 = system: HCT-116
HCT-15 = system: HCT-15
HL-60 = system: HL-60
HOP-62 = system: HOP-62
HOP-92 = system: HOP-92
HT-29 = system: HT-29
Hs-578T = system: Hs-578T
IGROV-1 = system: IGROV-1
KM12 = system: KM12
LOX IMVI = system: LOX IMVI
M14 = system: M14
MCF7 = system: MCF7
MDA-MB-231 = system: MDA-MB-231
MDA-MB-435 = system: MDA-MB-435
MDA-N = system: MDA-N
MOLT-4 = system: MOLT-4
Malme-3M = system: Malme-3M
NCI-H226 = system: NCI-H226
NCI-H23 = system: NCI-H23
NCI-H460 = system: NCI-H460
NCI-H522 = system: NCI-H522
NCI/ADR-RES = system: NCI/ADR-RES
OVCAR-4 = system: OVCAR-4
OVCAR-5 = system: OVCAR-5
OVCAR-8 = system: OVCAR-8
PC-3 = system: PC-3
RXF 393 = system: RXF 393
SF-268 = system: SF-268
SF-295 = system: SF-295
SF-539 = system: SF-539
SK-MEL-28 = system: SK-MEL-28
SK-MEL-2 = system: SK-MEL-2
SK-MEL-5 = system: SK-MEL-5
SK-OV-3 = system: SK-OV-3
SN12C = system: SN12C
SNB-19 = system: SNB-19
SNB-75 = system: SNB-75
SW-620 = system: SW-620
T47D = system: T47D
TK-10 = system: TK-10
U-251 = system: U-251
UACC-257 = system: UACC-257
UACC-62 = system: UACC-62
UO-31 = system: UO-31
K562 = system: K562
OVCAR-3 = system: OVCAR-3
RPMI-8226 = system: RPMI-8226

Question: For CC1=C(C)C(=O)C(C2=CC(=O)C=CC2=O)=C(C2=CC(=O)C=CC2=O)C1=O, which GI50 (786-0) is on record?
Answer: 76.7 µM (inactive)

Question: And the GI50 (A498)?
Answer: > 100 µM (inactive)

Question: And the GI50 (A549)?
Answer: 98.9 µM (inactive)

Question: And the GI50 (ACHN)?
Answer: 59.4 µM (inactive)

Question: What about the GI50 (BT-549) of the same compound?
Answer: 86.9 µM (inactive)

Question: And the GI50 (CAKI-1)?
Answer: 25.2 µM (inactive)

Question: And the GI50 (CCRF-CEM)?
Answer: 14.1 µM (inactive)

Question: What about the GI50 (COLO 205) of the same compound?
Answer: 56 µM (inactive)

Question: What about the GI50 (DU-145) of the same compound?
Answer: > 100 µM (inactive)

Question: And the GI50 (EKVX)?
Answer: > 54.1 µM (inactive)

Question: What about the GI50 (HCC 2998) of the same compound?
Answer: > 100 µM (inactive)

Question: What about the GI50 (HCT-116) of the same compound?
Answer: 31.8 µM (inactive)

Question: And the GI50 (HCT-15)?
Answer: 41 µM

Question: What about the GI50 (HL-60) of the same compound?
Answer: 14.9 µM (inactive)

Question: What about the GI50 (HOP-62) of the same compound?
Answer: > 100 µM (inactive)

Question: What about the GI50 (HOP-92) of the same compound?
Answer: 36.4 µM (inactive)

Question: And the GI50 (HT-29)?
Answer: > 72.6 µM (inactive)

Question: And the GI50 (Hs-578T)?
Answer: 45.4 µM (inactive)

Question: And the GI50 (IGROV-1)?
Answer: 21.4 µM (inactive)

Question: And the GI50 (KM12)?
Answer: 64.4 µM (inactive)

Question: And the GI50 (LOX IMVI)?
Answer: 26.7 µM (inactive)

Question: What about the GI50 (M14) of the same compound?
Answer: > 76.9 µM (inactive)

Question: What about the GI50 (MCF7) of the same compound?
Answer: 26.4 µM (inactive)

Question: What about the GI50 (MDA-MB-231) of the same compound?
Answer: 18.4 µM (inactive)

Question: What about the GI50 (MDA-MB-435) of the same compound?
Answer: 27.9 µM (inactive)

Question: What about the GI50 (MDA-N) of the same compound?
Answer: 26.9 µM (inactive)

Question: And the GI50 (MOLT-4)?
Answer: 15.5 µM (inactive)

Question: What about the GI50 (Malme-3M) of the same compound?
Answer: 66.1 µM (inactive)

Question: And the GI50 (NCI-H226)?
Answer: > 100 µM (inactive)

Question: And the GI50 (NCI-H23)?
Answer: > 100 µM (inactive)

Question: And the GI50 (NCI-H460)?
Answer: > 100 µM (inactive)

Question: And the GI50 (NCI-H522)?
Answer: 21.2 µM (inactive)

Question: And the GI50 (NCI/ADR-RES)?
Answer: > 100 µM (inactive)

Question: What about the GI50 (OVCAR-4) of the same compound?
Answer: 20.6 µM (inactive)

Question: What about the GI50 (OVCAR-5) of the same compound?
Answer: > 58.9 µM (inactive)

Question: And the GI50 (OVCAR-8)?
Answer: 36.6 µM (inactive)

Question: And the GI50 (PC-3)?
Answer: 62.8 µM (inactive)

Question: What about the GI50 (RXF 393) of the same compound?
Answer: 41.9 µM (inactive)

Question: What about the GI50 (SF-268) of the same compound?
Answer: > 74.6 µM (inactive)

Question: What about the GI50 (SF-295) of the same compound?
Answer: > 96.2 µM (inactive)

Question: What about the GI50 (SF-539) of the same compound?
Answer: 27.3 µM (inactive)

Question: And the GI50 (SK-MEL-28)?
Answer: > 74 µM (inactive)

Question: What about the GI50 (SK-MEL-2) of the same compound?
Answer: > 100 µM (inactive)

Question: What about the GI50 (SK-MEL-5) of the same compound?
Answer: 21.3 µM (inactive)

Question: And the GI50 (SK-OV-3)?
Answer: > 100 µM (inactive)

Question: And the GI50 (SN12C)?
Answer: 31 µM (inactive)

Question: And the GI50 (SNB-19)?
Answer: > 100 µM (inactive)

Question: And the GI50 (SNB-75)?
Answer: > 100 µM (inactive)

Question: What about the GI50 (SW-620) of the same compound?
Answer: 28.4 µM (inactive)

Question: What about the GI50 (T47D) of the same compound?
Answer: 26.4 µM (inactive)

Question: What about the GI50 (TK-10) of the same compound?
Answer: > 100 µM (inactive)

Question: And the GI50 (U-251)?
Answer: 32.7 µM (inactive)

Question: And the GI50 (UACC-257)?
Answer: > 67.1 µM (inactive)

Question: And the GI50 (UACC-62)?
Answer: 39.6 µM (inactive)

Question: And the GI50 (UO-31)?
Answer: 41.7 µM (inactive)

Question: Which GI50 (786-0) does the source give for O=C(CCCN1CCC2(CC1)CC(=O)N(N1CCOCC1)C2=O)c1ccc(F)cc1 here?
Answer: > 100 µM (inactive)

Question: And the GI50 (A498)?
Answer: > 100 µM (inactive)

Question: What about the GI50 (A549) of the same compound?
Answer: > 100 µM (inactive)

Question: What about the GI50 (ACHN) of the same compound?
Answer: > 100 µM (inactive)

Question: What about the GI50 (BT-549) of the same compound?
Answer: > 100 µM (inactive)

Question: What about the GI50 (CAKI-1) of the same compound?
Answer: > 100 µM (inactive)

Question: And the GI50 (CCRF-CEM)?
Answer: > 100 µM (inactive)

Question: And the GI50 (COLO 205)?
Answer: > 100 µM (inactive)

Question: And the GI50 (DU-145)?
Answer: > 100 µM (inactive)

Question: What about the GI50 (HCT-116) of the same compound?
Answer: > 100 µM (inactive)

Question: What about the GI50 (HCT-15) of the same compound?
Answer: > 100 µM

Question: And the GI50 (HL-60)?
Answer: > 100 µM (inactive)

Question: What about the GI50 (HOP-62) of the same compound?
Answer: > 100 µM (inactive)

Question: And the GI50 (HT-29)?
Answer: > 100 µM (inactive)

Question: And the GI50 (Hs-578T)?
Answer: > 100 µM (inactive)

Question: And the GI50 (IGROV-1)?
Answer: > 100 µM (inactive)

Question: And the GI50 (K562)?
Answer: > 100 µM (inactive)

Question: And the GI50 (KM12)?
Answer: > 100 µM (inactive)

Question: What about the GI50 (LOX IMVI) of the same compound?
Answer: > 100 µM (inactive)

Question: What about the GI50 (M14) of the same compound?
Answer: > 100 µM (inactive)

Question: What about the GI50 (MCF7) of the same compound?
Answer: > 100 µM (inactive)

Question: What about the GI50 (MDA-MB-231) of the same compound?
Answer: > 100 µM (inactive)

Question: And the GI50 (MDA-MB-435)?
Answer: > 100 µM (inactive)

Question: And the GI50 (MDA-N)?
Answer: > 100 µM (inactive)

Question: What about the GI50 (MOLT-4) of the same compound?
Answer: > 100 µM (inactive)

Question: And the GI50 (Malme-3M)?
Answer: > 100 µM (inactive)

Question: What about the GI50 (NCI-H226) of the same compound?
Answer: 99.3 µM (inactive)

Question: And the GI50 (NCI-H23)?
Answer: > 100 µM (inactive)

Question: What about the GI50 (NCI-H460) of the same compound?
Answer: > 100 µM (inactive)

Question: And the GI50 (NCI-H522)?
Answer: > 100 µM (inactive)

Question: And the GI50 (NCI/ADR-RES)?
Answer: > 100 µM (inactive)

Question: What about the GI50 (OVCAR-3) of the same compound?
Answer: > 100 µM (inactive)

Question: And the GI50 (OVCAR-5)?
Answer: > 100 µM (inactive)

Question: And the GI50 (OVCAR-8)?
Answer: > 100 µM (inactive)

Question: And the GI50 (PC-3)?
Answer: > 100 µM (inactive)

Question: What about the GI50 (RPMI-8226) of the same compound?
Answer: > 100 µM (inactive)

Question: And the GI50 (RXF 393)?
Answer: > 100 µM (inactive)

Question: What about the GI50 (SF-268) of the same compound?
Answer: > 100 µM (inactive)

Question: And the GI50 (SF-295)?
Answer: > 100 µM (inactive)

Question: And the GI50 (SF-539)?
Answer: > 100 µM (inactive)

Question: What about the GI50 (SK-MEL-28) of the same compound?
Answer: > 100 µM (inactive)

Question: And the GI50 (SK-MEL-2)?
Answer: > 100 µM (inactive)

Question: And the GI50 (SK-MEL-5)?
Answer: > 100 µM (inactive)

Question: And the GI50 (SK-OV-3)?
Answer: > 100 µM (inactive)

Question: What about the GI50 (SN12C) of the same compound?
Answer: > 100 µM (inactive)

Question: What about the GI50 (SNB-19) of the same compound?
Answer: > 100 µM (inactive)

Question: And the GI50 (SNB-75)?
Answer: > 100 µM (inactive)

Question: What about the GI50 (SW-620) of the same compound?
Answer: > 100 µM (inactive)

Question: And the GI50 (T47D)?
Answer: > 100 µM (inactive)

Question: What about the GI50 (TK-10) of the same compound?
Answer: > 100 µM (inactive)

Question: And the GI50 (U-251)?
Answer: > 100 µM (inactive)

Question: What about the GI50 (UACC-257) of the same compound?
Answer: > 100 µM (inactive)

Question: What about the GI50 (UACC-62) of the same compound?
Answer: > 100 µM (inactive)

Question: What about the GI50 (UO-31) of the same compound?
Answer: > 100 µM (inactive)
